{"source": "paper PMC8231556", "about": "“Inhibiting Endothelial Cell Function in Normal and Tumor Angiogenesis Using BMP Type I Receptor Macrocyclic Kinase Inhibitors” (Cancers, 2021)", "test_system": "HUVECs", "assay": "Cord formation assay, HUVEC-eGFP co-cultured with human dermal fibroblasts", "type": "cell-based", "conditions": "VEGF 15 ng/mL, 6 days; 0.5 µM (Sunitinib 1 μM)", "protocol": "The cord formation assay was performed according to the IncuCyte Angiogenesis PrimeKit Assay protocol (Cell Player Angiogenesis PrimeKit, Essen BioScience). In brief, GFP labeled HUVEC cells and human dermal fibroblasts were mixed in a 1:20 ratio and seeded per well in a 96-well plate (3150 cells in total). Thereafter, the cells were exposed to VEGF alone or in combination with the compounds (at indicated concentrations) in a complete assay medium. Pictures were captured every 6 h for up to 9 days To monitor the cord formation. The medium was refreshed every 2 or 3 days. Cords formation was visualized by the GFP fluorescence, and cord length was quantified with the instrument’s software. All the experiments were repeated at least three times, and representative experiments are shown.", "data": [{"compound": "CCN(CC)CCNC(=O)c1c(C)[nH]c(/C=C2\\C(=O)Nc3ccc(F)cc32)c1C", "note": "[Sunitinib, reference compound]", "values": [{"measurement": "effect on VEGF-induced EC cord formation", "value": "strongly suppressed"}]}]}
